Structures can show the parent of a compound that is named as a salt. Where two headings read alike, the source gives them in different places.
Columns and labels:
MCF-7 = assay: WST-1 proliferation/viability assay, MCF-7; format: cell-based; details: Homo sapiens, 72 h, 1% FCS
Description: (§1) Breast cancer cell lines (generous gift from Dr. […], UMR 599 INSERM, Marseille, France) were cultured as monolayers in RPMI 1640 medium, containing L-glutamine supplemented with 100 U/mL penicillin and 100 μg/mL streptomycin, and 10% v/v heat-inactivated fetal calf serum (AbCys Lot S02823S1800) under standard culture conditions (5% CO2, 95% air in humidified chamber at 37° C.). During proliferation assay, all cells were grown in medium containing 1% FCS. Colorimetric cell proliferation and viability assay (reagent WST-1 purchased from Roche cat N^o 1644807)-Cells were washed once and resuspended in RPMI 1% FCS. Cells were plated at 1×10^4/50 μl per well of a 96 well plate. […] Treatment was started by the addition of 50 μl of a 2× concentrated drug solution to a final volume of 100 μl. […] After incubating for 72 hours at 37° C., 10 μl of a 1⁄2 dilution of WST-1 reagent was added to each well and the plates were returned to the incubator for an additional 4 hours. The absorbance of the samples was measured at 490 nm using an EL800 Universal microplate reader (Bio-Tek Instruments Inc.). A background control without cells was used as a blank. […] Each sample was done in duplicate, the absorbance values were transferred to an excel file, the average and standard deviation of the duplicates were calculated and expressed as a percentage of the proliferation obtained in absence of treatment. […]

MDAMB231 = assay: WST-1 proliferation/viability assay, MDAMB231; format: cell-based, human; details: 72 h, 1% FCS
Description: (§2) Breast cancer cell lines (generous gift from Dr. […], UMR 599 INSERM, Marseille, France) were cultured as monolayers in RPMI 1640 medium, containing L-glutamine supplemented with 100 U/mL penicillin and 100 μg/mL streptomycin, and 10% v/v heat-inactivated fetal calf serum (AbCys Lot S02823S1800) under standard culture conditions (5% CO2, 95% air in humidified chamber at 37° C.). During proliferation assay, all cells were grown in medium containing 1% FCS. Colorimetric cell proliferation and viability assay (reagent WST-1 purchased from Roche cat N^o 1644807)-Cells were washed once and resuspended in RPMI 1% FCS. Cells were plated at 1×10^4/50 μl per well of a 96 well plate. […] Treatment was started by the addition of 50 μl of a 2× concentrated drug solution to a final volume of 100 μl. […] After incubating for 72 hours at 37° C., 10 μl of a 1⁄2 dilution of WST-1 reagent was added to each well and the plates were returned to the incubator for an additional 4 hours. The absorbance of the samples was measured at 490 nm using an EL800 Universal microplate reader (Bio-Tek Instruments Inc.). A background control without cells was used as a blank. The positive control of the assay corresponds to the cell proliferation obtained in the absence of drug treatment (100% proliferation). Each sample was done in duplicate, the absorbance values were transferred to an excel file, the average and standard deviation of the duplicates were calculated and expressed as a percentage of the proliferation obtained in absence of treatment. The results presented are representative of a minimum of four experiments.

HCC1937 = assay: WST-1 proliferation/viability assay, HCC1937; format: cell-based; details: Homo sapiens, doxorubicin single agent, 72 h, 1% FCS
Description: as §1

MDAMB134 = assay: WST-1 proliferation/viability assay, MDAMB134; format: cell-based, human; details: 72 h, 1% FCS
Description: as §2

breast cancer cell lines = assay: WST-1 proliferation assay, masitinib mesilate single agent; format: cell-based; details: Homo sapiens, 1% FCS
Description: Breast cancer cell lines (generous gift from Dr. […], UMR 599 INSERM, Marseille, France) were cultured as monolayers in RPMI 1640 medium, containing L-glutamine supplemented with 100 U/mL penicillin and 100 μg/mL streptomycin, and 10% v/v heat-inactivated fetal calf serum (AbCys Lot S02823S1800) under standard culture conditions (5% CO2, 95% air in humidified chamber at 37° C.). During proliferation assay, all cells were grown in medium containing 1% FCS. Colorimetric cell proliferation and viability assay (reagent WST-1 purchased from Roche cat N^o 1644807)-Cells were washed once and resuspended in RPMI 1% FCS. Cells were plated at 1×10^4/50 μl per well of a 96 well plate. […] Treatment was started by the addition of 50 μl of a 2× concentrated drug solution to a final volume of 100 μl. […] The absorbance of the samples was measured at 490 nm using an EL800 Universal microplate reader (Bio-Tek Instruments Inc.). […] Each sample was done in duplicate, the absorbance values were transferred to an excel file, the average and standard deviation of the duplicates were calculated and expressed as a percentage of the proliferation obtained in absence of treatment. […] Breast cancer cell lines were first analyzed for their sensitivity to masitinib mesilate when used as single agent.

[1] = test system: CMT-U27 canine mammary carcinoma cell line; assay: MTT proliferation assay and combination index, CMT-U27; format: cell-based; details: for IC50: single agent, read-out: IC50 growth inhibitory activity
Description: (§3) Two canine mammary tumor (CMT) cell lines were evaluated, CMT-U27 and CMT-U309. CMT-U27 is a highly metastatic canine mammary carcinoma cell line while CMT-U309 is a non-metastatic spindle-cell cell line. Cell lines were maintained in Dulbecco's modified Eagles Medium-F12 supplemented with 10% fetal bovine serum and antimicrobials (penicillin [100 U/mL] and streptomycin [0.1 mg/mL]). Cell lines were maintained in a humidified atmosphere of 5% carbon dioxide at 37° C.
(§4) Solutions were prepared newly prepared from the stock solution for each experiment.
(§5) Cells were seeded at a density of 1.0×10^4 cells/well (final volume, 100 μL/well) in three replicates. […] At the end of treatment, 10 μl of MTT solution (5 mg/ml in PBS) was added to each well. The plates were incubated for 4 hours in a humidified atmosphere at 37° C. with 5% CO2. After that incubation, cell proliferation was assessed by use of a commercial cell proliferation MTT [3-(4,5-dimethylthiazol-2-yl)-2,5-diphenyltrazolium bromide] kit. All samples were assayed in triplicate, and the mean for each experiment was calculated. The effect of each compound on growth inhibition was assessed as percent cell viability where vehicle-treated cells were taken as 100% viable. Cell proliferation was expressed as a percentage of the control wells by use of the following equation: (absorbance of sample wells/absorbance of control wells)×100. The mean of triplicate experiments for each dose was used to calculate IC50 as determined by CalcuSyn software.

[2] = test system: CMT-U309 canine mammary tumor cell line; assay: MTT proliferation assay and combination index, CMT-U309; details: for Viability (%): 72 hours incubation, doses at single-agent IC50 concentrations; for IC50: single agent
Description: as §3, §4, §5

[3] = test system: metastatic or locally advanced breast cancer (except triple negative); details: patients resistant to at least one first-line chemotherapy; literature (Miller 2005; Brodowicz 2000); cited from earlier work
[4] = test system: TNBC (metastatic or locally advanced); details: cisplatin alone (N = 58); Baselga et al. 2013; cited from earlier work
Mia Paca-2 cells = assay: WST-1 proliferation/survival assay, gemcitabine-resistant Mia Paca-2; format: cell-based; details: for cell proliferation, single agent: TKI 10 μM; for sensitization of cells to gemcitabine by TKI pre-incubation: TKI 5 or 10 μM overnight before gemcitabine, FIG. 2; for IC50: Homo sapiens, 72 hours, 1% FCS, read-out: IC50 single agent
Description: The antiproliferative activity of each TKI and gemcitabine is assessed using a WST-1 proliferation/survival assay in growth medium containing 1% fetal calf serum (FCS). Treatment is started with the addition of the relevant drug. For combination treatment (TKI plus gemcitabine), cells are re-suspended in medium (1% FCS) containing 0, 5 or 10 μM of the relevant TKI and incubated overnight before gemcitabine addition. After 72 hours, WST-1 reagent is added and incubated with the cells for 4 hours before absorbance measurement at 450 nm in an EL800 Universal Microplate Reader (Bio-Tek Instruments Inc.). Media alone is used as a blank and proliferation in the absence of drug served as a positive control. A TKI sensitization index is calculated as the ratio of the IC50 of gemcitabine against the IC50 of the drug combination.

BT20 = assay: WST-1 proliferation/viability assay, BT20; format: cell-based; details: Homo sapiens, BT-20, gemcitabine single agent, 72 h, 1% FCS
Description: as §1

BT474 = assay: WST-1 proliferation/viability assay, BT474; format: cell-based, human; details: 72 h, 1% FCS
Description: as §1

[5] = test system: relapsed or refractory inflammatory breast cancer; details: lapatinib 1500 mg/day; 126 patients; Kaufman et al. 2009; cited from earlier work
[6] = Canis lupus familiaris, 24 h, read-out: IC50 growth inhibitory activity, CMT-U309, 24 h
[7] = Canis lupus familiaris, 48 h, read-out: IC50 growth inhibitory activity, CMT-U309, 48 h
[8] = Canis lupus familiaris, 72 h, read-out: IC50 growth inhibitory activity, CMT-U309, 72 h
[9] = carboplatin single agent, read-out: IC50 CPT

## COc1cccc2c1C(=O)c1c(O)c3c(c(O)c1C2=O)C[C@@](O)(C(=O)CO)C[C@@H]3O[C@H]1C[C@H](N)[C@H](O)[C@H](C)O1 [DOX, doxorubicin]
MCF-7; MCF7, doxorubicin single agent, read-out: IC50 DOX
  IC50: 1 µM
MDAMB231; Homo sapiens, MDA-MB-231, doxorubicin single agent, read-out: IC50 DOX
  IC50: 1 µM
HCC1937
  IC50: 1 µM
MDAMB134; Homo sapiens, doxorubicin single agent, read-out: IC50 DOX
  IC50: 1 µM

## CCc1c2c(nc3ccc(OC(=O)N4CCC(N5CCCCC5)CC4)cc13)-c1cc3c(c(=O)n1C2)COC(=O)[C@]3(O)CC [CPT-11, irinotecan]
MCF-7; MCF7, irinotecan single agent, read-out: IC50 CPT-11
  IC50: 100 µM
MDAMB231; Homo sapiens, MDA-MB-231, irinotecan single agent, read-out: IC50 CPT-11
  IC50: 30 µM
MDAMB134; Homo sapiens, irinotecan single agent, read-out: IC50 CPT-11
  IC50: 30 µM

## Cc1ccc(NC(=O)c2ccc(CN3CCN(C)CC3)cc2)cc1Nc1nc(-c2cccnc2)cs1 [Masitinib mesilate]
Breast cancer cell lines
  IC50: > 6 µM

## O=C1c2c(O)ccc(O)c2C(=O)c2c(NCCNCCO)ccc(NCCNCCO)c21 [Mitoxantrone, Mitoxantrone dihydrochloride]
[1]; 72 h, listed as Mixoxantrone, dihydrochloride
  IC50: 0.219 µM
[1]; Canis lupus familiaris, 24 h
  IC50: 3.09 µM
[1]; Canis lupus familiaris, 48 h
  IC50: 1.11 µM
[1]; Canis lupus familiaris, 72 h
  IC50: 0.22 µM
[2]; CMT-U309
  Viability (%): 56.8%
[2]; [6]
  IC50: 2.77 µM
[2]; [7]
  IC50: 1 µM
[2]; [8]
  IC50: 0.75 µM
[2]; read-out: IC50 growth inhibitory activity, CMT-U309, 72 h, dihydrochloride
  IC50: 0.751 µM

## CCCCCOC(=O)Nc1nc(=O)n([C@@H]2O[C@H](C)[C@@H](O)[C@H]2O)cc1F [capecitabine]
[3]
  Median OS (months), benchmark single agent (L2): 14.5 months

## N.N.[Cl][Pt][Cl] [Cisplatin, cisplatin]
[4]
  Median OS (months): 9.4 months

## Cc1ccc(NC(=O)c2ccc(CN3CCN(C)CC3)cc2)cc1Nc1nccc(-c2cccnc2)n1 [imatinib]
Mia Paca-2 cells; FIG. 1
  cell proliferation, single agent: only weakly inhibited
Mia Paca-2 cells
  sensitization of cells to gemcitabine by TKI pre-incubation: does not result in an increased response

## Cc1nc(Nc2ncc(C(=O)Nc3c(C)cccc3Cl)s2)cc(N2CCN(CCO)CC2)n1 [dasatinib]
Mia Paca-2 cells; FIG. 1
  cell proliferation, single agent: affected by a similar extent
Mia Paca-2 cells
  sensitization of cells to gemcitabine by TKI pre-incubation: does not result in an increased response
Mia Paca-2 cells; concentrations superior to 0.1 μM
  cell proliferation at low concentrations: partial inhibition

## Cc1ccc(NC(=O)c2ccc(CN3CCN(C)CC3)cc2)cc1Nc1nc(-c2cccnc2)cs1 [Masitinib, 4-(4-methylpiperazin-1-ylmethyl)-N-[4-methyl-3-(4-pyridin-3ylthiazol-2-ylamino)phenyl]benzamide]
Mia Paca-2 cells
  IC50: 5 to 10 µM
  sensitization of cells to gemcitabine by TKI pre-incubation: significantly sensitized
Mia Paca-2 cells; masitinib concentration of 10 μM, FIG. 1
  cells remaining resistant: more than 50%
[1]; 72 h
  IC50: 7.5 µM
[1]; 72 hours incubation, doses at single-agent IC50 concentrations
  Viability (%): 77.3%
[1]; Canis lupus familiaris, 24 h
  IC50: 9.13 µM
[1]; Canis lupus familiaris, 48 h
  IC50: 7.61 µM
[1]; Canis lupus familiaris, 72 h
  IC50: 7.5 µM
[2]; CMT-U309
  Viability (%): 66.0%
[2]; [6]
  IC50: 15 µM
[2]; [7]
  IC50: 8.87 µM
[2]; [8]
  IC50: 8.5 µM
[2]; read-out: IC50 growth inhibitory activity, CMT-U309, 72 h
  IC50: 8.54 µM

## Nc1ccn([C@@H]2O[C@H](CO)[C@@H](O)C2(F)F)c(=O)n1 [GCB, 2′,2′,-dofluoro-2′,-deoxycytidine]
MDAMB231; Homo sapiens, MDA-MB-231, gemcitabine single agent, read-out: IC50 GCB
  IC50: 100 µM
BT20
  IC50: 50 µM
Mia Paca-2 cells
  IC50: > 10 µM
BT474; Homo sapiens, BT-474, gemcitabine single agent, read-out: IC50 GCB
  IC50: 100 µM
MDAMB134; Homo sapiens, gemcitabine single agent, read-out: IC50 GCB
  IC50: 100 µM

## N.N.O=C([O-])C1(C(=O)[O-])CCC1.[Pt+2] [CPT, carboplatin]
MDAMB231; [9]
  IC50: > 100 µM
BT474; [9]
  IC50: > 100 µM
MDAMB134; [9]
  IC50: > 100 µM

## CS(=O)(=O)CCNCc1ccc(-c2ccc3ncnc(Nc4ccc(OCc5cccc(F)c5)c(Cl)c4)c3c2)o1 [Lapatinib, lapatinib]
[5]
  Median overall survival: 11.2 months

Reference: patent publication US20170340629A1 (AB SCIENCE, priority 2014, published 2017)
